From article PMC9570109, “Improved Trimethylangelicin Analogs for Cystic Fibrosis: Design, Synthesis and Preliminary Screening” (International Journal of Molecular Sciences, 2022)

Tests used:
salmon testes DNA = assay: Photoadduct formation with DNA under UVA irradiation (TLC analysis); settings: 15 J/cm2 UVA
Procedure: The total energy that struck the sample was monitored by means of a radiometer (Variocontrol, Waldmann, Villingen-Schwenningen, Germany), equipped with a Variocontrol UV Sensor (Waldmann). The radiant power emitted by the UVA lamp was about […]. The samples were maintained at room temperature during irradiation.
The test compounds were dissolved in ethanol (2 mg/mL) and salmon testes DNA (Sigma-Aldrich) was dissolved in 10 mM NaCl and 1 mM EDTA solution (1.5 × 10^−3 M). Each test solution (250 μL) was added dropwise to the DNA solution (5 mL). The mixture was irradiated with 15 J/cm2 UVA light in a glass dish for 1 h. After irradiation, the DNA was precipitated with 1 M NaCl and two volumes of cold ethanol; the precipitated DNA was collected, washed with 80% ethanol, dried, and then dissolved in water. To obtain hydrolysis, the final solution was acidified with 1 M HCl, heated at 100 °C for 1 h, neutralized with NaOH and extracted three times with chloroform. Then, all of the organic layers were collected, dried under a high vacuum, and dissolved in ethanol. The hydrolyzed mixtures were separated by thin layer chromatography (TLC; F254 plates, 0.25 mm, Merck, Darmstadt, Germany) eluting with EtOAc/EtOH (9:1). The plates were analyzed with a Mineral Light Lamp VL-4LC VILBERT-LOURMAT (Vilber, Marne-la-Vallée, France).

[1] = test system: Salmonella typhimurium TA97A; assay: Ames mutagenicity assay, plate incorporation, TA97A; assay type: cell-based
Procedure: (§1) The mutagenicity assay was performed for the test compounds following the plate incorporation method with the histidine-requiring Salmonella typhimurium mutant TA97A, TA98, TA100, and TA1535 strains purchased by Molecular Toxicology Inc. (Boone, NC, USA; moltox.com). All strains (100 µL per plate of fresh overnight cultures) were checked with and without the addition of 0.5 mL of a 5% S9 exogenous metabolic activator (S9 mix). The lyophilized post-mitochondrial supernatant S9 mix (Aroclor 1254-induced, Sprague–Dawley male rat liver in 0.154 M KCl solution), commonly used for the activation of pro-mutagens in mutagenic metabolites (Molecular Toxicology, Inc., Boone, NC, USA), was stored at −80 °C before use. The concentration tested for all the samples were 5, 10, 20, 50, and 100 µL/plate from a stock solution of 500 nM. A fully grown culture of the appropriate tester strain (0.1 mL) was added to 2 mL molten top agar (0.6% agar, 0.6% NaCl, 0.5 mM L-histidine/biotin solution) at 46 °C, together with 0.1 mL of each sample solution at different concentrations, and 0.5 mL S9 mix for assays with metabolic activation. The ingredients were thoroughly mixed and poured onto minimal glucose agar plates (1.5% agar in 2% Vogel–Bonner medium E with 5% glucose solution). DMSO was used as negative a control (100 µL/plate). Positive controls were prepared as follows: 2-aminoanthracene (2 µg/plate) and 2-nitrofluorene (2 µg/plate) for TA 97A, TA98 and TA1535 with and without metabolic activator (S9 mix), respectively; 2-aminoanthracene (2 µg/plate) and sodium azide (2 µg/plate) for TA100, with and without metabolic activator (S9 mix), respectively. The plates were incubated at 37 °C for 72 h and then his+ revertants were checked and counted using a Colony Counter 560 Suntex (Antibioticos, Italy). A sample was considered mutagenic when the observed number of colonies was at least twofold over the spontaneous level of revertants. All determinations were made in triplicate. Statistical analysis: relative standard deviations were calculated using the statistical software STATISTICA 6.0 (StatSoft, Italia srl, Vigonza, Italy). […]
(§2) Salmonella typhimurium TA97A Salmonella typhimurium TA98 Salmonella typhimurium TA100 Salmonella typhimurium 1535 […]
(§3) average SD t/c average SD t/c average SD t/c average SD t/c average SD t/c average SD t/c average SD t/c average SD t/c […]
(§4) *Significant values according to Ames computation (Maron & Ames, 1983); DMSO, C+: negative and positive controls respectively; SD: Standard Deviation; t/c: number of revertant colonies in treated plates/number of revertant colonies in […]

[2] = test system: Salmonella typhimurium TA98; assay: Ames mutagenicity assay, plate incorporation, TA98; assay type: cell-based
Procedure: as §1, §2, §3, §4

[3] = test system: Salmonella typhimurium TA100; assay: Ames mutagenicity assay, plate incorporation, TA100; assay type: cell-based
Procedure: as §1, §2, §3, §4

[4] = +S9, 5 µL/plate of 500 nM stock
[5] = +S9, 10 µL/plate of 500 nM stock
[6] = +S9, 20 µL/plate of 500 nM stock
[7] = +S9, 50 µL/plate of 500 nM stock
[8] = +S9, 100 µL/plate of 500 nM stock
[9] = -S9, 5 µL/plate of 500 nM stock
[10] = -S9, 10 µL/plate of 500 nM stock
[11] = -S9, 20 µL/plate of 500 nM stock
[12] = -S9, 50 µL/plate of 500 nM stock
[13] = -S9, 100 µL/plate of 500 nM stock
[14] = TA98, +S9, 5 µL/plate of 500 nM stock
[15] = TA98, +S9, 10 µL/plate of 500 nM stock
[16] = TA98, +S9, 20 µL/plate of 500 nM stock
[17] = TA98, +S9, 50 µL/plate of 500 nM stock
[18] = TA98, +S9, 100 µL/plate of 500 nM stock
[19] = TA98, -S9, 5 µL/plate of 500 nM stock
[20] = TA98, -S9, 10 µL/plate of 500 nM stock
[21] = TA98, -S9, 20 µL/plate of 500 nM stock
[22] = TA98, -S9, 50 µL/plate of 500 nM stock
[23] = TA98, -S9, 100 µL/plate of 500 nM stock
[24] = TA100, +S9, 5 µL/plate of 500 nM stock
[25] = TA100, +S9, 10 µL/plate of 500 nM stock
[26] = TA100, +S9, 20 µL/plate of 500 nM stock
[27] = TA100, +S9, 50 µL/plate of 500 nM stock
[28] = TA100, +S9, 100 µL/plate of 500 nM stock
[29] = TA100, -S9, 5 µL/plate of 500 nM stock
[30] = TA100, -S9, 10 µL/plate of 500 nM stock
[31] = TA100, -S9, 20 µL/plate of 500 nM stock
[32] = TA100, -S9, 50 µL/plate of 500 nM stock
[33] = TA100, -S9, 100 µL/plate of 500 nM stock

## Cc1cc(=O)oc2c1cc(-c1ccc(N)cc1)c1occ(C)c12 [pANDMA]
Salmon testes DNA
  photoadduct formation with DNA upon UVA irradiation: only the unchanged bands
[1]; [4]
  revertant colonies, average: 88.5
  t/c (revertant colonies treated/untreated plates): 0.8
[1]; [5]
  revertant colonies, average: 100.5
  t/c (revertant colonies treated/untreated plates): 0.9
[1]; [6]
  revertant colonies, average: 92.5
  t/c (revertant colonies treated/untreated plates): 0.8
[1]; [7]
  revertant colonies, average: 104.5
  t/c (revertant colonies treated/untreated plates): 1.0
[1]; [8]
  revertant colonies, average: 101.0
  t/c (revertant colonies treated/untreated plates): 0.9
[1]; [9]
  revertant colonies, average: 82.5
  t/c (revertant colonies treated/untreated plates): 1.1
[1]; [10]
  revertant colonies, average: 80.5
  t/c (revertant colonies treated/untreated plates): 1.0
[1]; [11]
  revertant colonies, average: 82.0
  t/c (revertant colonies treated/untreated plates): 1.1
[1]; [12]
  revertant colonies, average: 86.5
  t/c (revertant colonies treated/untreated plates): 1.1
[1]; [13]
  revertant colonies, average: 86.0
  t/c (revertant colonies treated/untreated plates): 1.1
[2]; [14]
  revertant colonies, average: 50.0
  t/c (revertant colonies treated/untreated plates): 1.1
[2]; [15]
  revertant colonies, average: 48.0
  t/c (revertant colonies treated/untreated plates): 1.0
[2]; [16]
  revertant colonies, average: 49.5
  t/c (revertant colonies treated/untreated plates): 1.1
[2]; [17]
  revertant colonies, average: 51.0
  t/c (revertant colonies treated/untreated plates): 1.1
[2]; [18]
  revertant colonies, average: 45.5
  t/c (revertant colonies treated/untreated plates): 1.0
[2]; [19]
  revertant colonies, average: 40.5
  t/c (revertant colonies treated/untreated plates): 1.0
[2]; [20]
  revertant colonies, average: 40.5
  t/c (revertant colonies treated/untreated plates): 1.0
[2]; [21]
  revertant colonies, average: 43.5
  t/c (revertant colonies treated/untreated plates): 1.1
[2]; [22]
  revertant colonies, average: 41.0
  t/c (revertant colonies treated/untreated plates): 1.1
[2]; [23]
  revertant colonies, average: 39.0
  t/c (revertant colonies treated/untreated plates): 1.0
[3]; [24]
  revertant colonies, average: 175.0
  t/c (revertant colonies treated/untreated plates): 1.0
[3]; [25]
  revertant colonies, average: 181.5
  t/c (revertant colonies treated/untreated plates): 1.1
[3]; [26]
  revertant colonies, average: 224.0
  t/c (revertant colonies treated/untreated plates): 1.3
[3]; [27]
  revertant colonies, average: 232.0
  t/c (revertant colonies treated/untreated plates): 1.4
[3]; [28]
  revertant colonies, average: 235.5
  t/c (revertant colonies treated/untreated plates): 1.4
[3]; [29]
  revertant colonies, average: 192.0
  t/c (revertant colonies treated/untreated plates): 1.0
[3]; [30]
  revertant colonies, average: 189.0
  t/c (revertant colonies treated/untreated plates): 1.0
[3]; [31]
  revertant colonies, average: 204.5
  t/c (revertant colonies treated/untreated plates): 1.0
[3]; [32]
  revertant colonies, average: 189.0
  t/c (revertant colonies treated/untreated plates): 1.0
[3]; [33]
  revertant colonies, average: 165.5
  t/c (revertant colonies treated/untreated plates): 0.8
